In this test the target is T1, MEK1 (Homo sapiens, UniProt Q02750, DEL33-52/S218E/S222D).
T1 construct: 6-histidine tag (pFastbac leader) (N); made in house; host or cells: Spodoptera frugiperda Sf9 (baculovirus) for MEK1; E. coli for GST-ERK1
As to the kind of experiment: MEK1 inhibition, fluorescence polarization (IMAP) assay with ERK1 and FI-Erktide. Type of test: biochemical. Conditions: 1 nM MEK1, 25 nM ERK1, 400 μM ATP, 500 nM FI-Erktide, 22 min at room temperature; read-out: IC50 of Exemplified Compounds Against MEK1. The procedure: The deletion from residues 32-51, and the two mutations, S218E and S222D, may be obtained by quick change PCR.
Reaction product is determined quantitatively by fluorescent polarization using progressive IMAP beads from Molecular Devices.
The reaction mixture may then be incubated at room temperature for 22 min, and quenched and developed by addition of 20 μl of 1:200 dilution of progressive IMAP beads (Molecular Devices) in 80% buffer A, 20% buffer B and 0.003% Tween 20. Fluorescence polarization of the resulting reaction mixtures may be measured after a 1 hour incubation at room temperature.
IC50 values may be calculated by non-linear curve fitting of the compound concentrations and fluorescence polarization signal to the standard IC50 equation.
Background: Fluorescence polarisation rises when a labelled molecule tumbles more slowly, as on binding a larger partner.

Nine compounds from patent publication US8022057B2, “MAPK/ERK kinase inhibitors” (Takeda Pharmaceutical Company Limited, priority 2007, dated 2011) can be followed below.

T1 sequence (Q02750 with tags, fused parts or gaps DEL33-52/S218E/S222D): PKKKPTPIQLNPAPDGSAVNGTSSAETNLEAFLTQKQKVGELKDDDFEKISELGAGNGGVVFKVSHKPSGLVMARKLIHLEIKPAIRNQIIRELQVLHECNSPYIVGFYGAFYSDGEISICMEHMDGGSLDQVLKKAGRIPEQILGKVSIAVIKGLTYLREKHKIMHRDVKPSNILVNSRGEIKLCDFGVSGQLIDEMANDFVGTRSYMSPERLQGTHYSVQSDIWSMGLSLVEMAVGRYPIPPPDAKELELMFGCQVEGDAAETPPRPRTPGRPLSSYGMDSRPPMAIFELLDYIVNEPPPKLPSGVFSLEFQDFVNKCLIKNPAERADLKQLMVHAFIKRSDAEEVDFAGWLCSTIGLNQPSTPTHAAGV

The IC50 is the concentration that gives 50% inhibition. As to `Cc1c(Nc2ccc(I)cc2F)c(C(=O)NOCCO)c2n(c1=O)CCC2` [Example 8, 7-(2-Fluoro-4-iodophenylamino)-N-(2-hydroxyethoxy)-6-methyl-5-oxo-1,2,3,5-tetrahydroindolizine-8-carboxamide], the IC50 is at most 100 nM.
The same measure for `O=C(NOC[C@H](O)CO)c1c(Nc2ccc(I)cc2F)c(F)c(=O)n2c1CCC2` [Example 2, (R)—N-(2,3-Dihydroxypropoxy)-6-fluoro-7-(2-fluoro-4-iodophenylamino)-5-oxo-1,2,3,5-tetrahydroindolizine-8-carboxamide]: at most 100 nM; for `O=C(NOCCO)c1c(Nc2ccc(I)cc2F)c(F)c(=O)n2c1CCC2` [Example 4, 6-Fluoro-7-(2-fluoro-4-iodophenylamino)-N-(2-hydroxyethoxy)-5-oxo-1,2,3,5-tetrahydroindolizine-8-carboxamide]: at most 100 nM; for `C#Cc1ccc(Nc2c(C(=O)NOCCO)c3n(c(=O)c2F)CCC3)c(F)c1` [Example 11, 7-(4-Ethynyl-2-fluorophenylamino)-6-fluoro-N-(2-hydroxyethoxy)-5-oxo-1,2,3,5-tetrahydroindolizine-8-carboxamide]: at most 100 nM.
Next, `O=C(NOC(CO)CO)c1c(Nc2ccc(I)cc2F)c(F)c(=O)n2c1CCC2` [Example 3, N-(1,3-Dihydroxypropan-2-yloxy)-6-fluoro-7-(2-fluoro-4-iodophenylamino)-5-oxo-1,2,3,5-tetrahydroindolizine-8-carboxamide]: at most 100 nM; `O=C(NOCCO)c1c(Nc2ccc(I)cc2F)c(Cl)c(=O)n2c1CCC2` [Example 10, 6-Chloro-7-(2-fluoro-4-iodophenylamino)-N-(2-hydroxyethoxy)-5-oxo-1,2,3,5-tetrahydroindolizine-8-carboxamide]: at most 100 nM; `O=C(O)c1c(Nc2ccc(I)cc2F)c(F)c(=O)n2c1CCC2` [Example 1, 6-Fluoro-7-(2-fluoro-4-iodophenylamino)-5-oxo-1,2,3,5-tetrahydroindolizine-8-carboxylic acid]: at most 100 nM.
Take `O=C(NOC[C@@H](O)CO)c1c(Nc2ccc(I)cc2F)c(F)c(=O)n2c1CCC2` [Example 5, (S)—N-(2,3-Dihydroxypropoxy)-6-fluoro-7-(2-fluoro-4-iodophenylamino)-5-oxo-1,2,3,5-tetrahydroindolizine-8-carboxamide]: the IC50 is at most 100 nM.
With `O=C(NOCCO)c1c(Nc2ccc(I)cc2F)c(F)c(=O)n2c1CCCC2` [Example 7, 7-Fluoro-8-(2-fluoro-4-iodophenylamino)-N-(2-hydroxyethoxy)-6-oxo-2,3,4,6-tetrahydro-1H-quinolizine-9-carboxamide], the IC50 is at most 100 nM.
